Results on two compounds are retold here after patent US20260232682A1, “GSPT1 DEGRADER COMPOUNDS” (Captor Therapeutics S.A., priority 2023, published 2026).

Experiment [1] deals with T1, [SALL4 ZF2]-[compound]-[CRBN/DDB1] ternary complex (Homo sapiens, UniProt Q96SW2+Q9UJQ4).
T1 construct: SALL4 ZF2
The experiment can be described thus: AlphaLISA assay for off-target recruitment detection, SALL4 ZF2. The experiment is classed as binding. The settings on record: 1 μM compound; normalized to Lenalidomide; read-out: Normalized ternary complex response, SALL4 ZF2. In short, it runs like this: (§1)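 Neo-substrate with 40 μg/ml donor beads and 200 nM 6×His-CRBN/DDB1 with 40 μg/ml anti-His acceptor beads were each prepared in PBS pH 7.4 with Tween-20 and 1 mM DTT, preincubated 30 min at RT, then mixed. Compounds at 2% DMSO were incubated 30 min at 25 °C, read at 680/615 nm, and normalised between DMSO background and reference glue maximum.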

Experiment [2] deals with T2, [IKZF1 ZF2]-[compound]-[CRBN/DDB1] ternary complex (Homo sapiens, UniProt Q13422+Q96SW2).
T2 construct: IKZF1 ZF2
T2 sequence (Q13422 145-167 limits assumed): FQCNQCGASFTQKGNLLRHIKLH
T2 sequence (Q96SW2 whole entry): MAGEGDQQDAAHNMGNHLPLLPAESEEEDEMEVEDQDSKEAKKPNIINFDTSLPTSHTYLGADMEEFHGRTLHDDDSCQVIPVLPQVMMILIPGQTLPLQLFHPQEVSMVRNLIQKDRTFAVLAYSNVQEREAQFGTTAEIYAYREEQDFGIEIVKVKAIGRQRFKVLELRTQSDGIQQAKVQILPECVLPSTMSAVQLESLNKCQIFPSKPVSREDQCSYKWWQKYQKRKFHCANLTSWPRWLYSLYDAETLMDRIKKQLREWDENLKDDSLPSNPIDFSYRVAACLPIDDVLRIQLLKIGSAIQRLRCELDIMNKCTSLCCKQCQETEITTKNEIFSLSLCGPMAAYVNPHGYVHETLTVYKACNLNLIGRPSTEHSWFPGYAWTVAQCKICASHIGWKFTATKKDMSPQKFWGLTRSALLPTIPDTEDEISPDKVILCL
T2 sequence (Q16531 whole entry partner): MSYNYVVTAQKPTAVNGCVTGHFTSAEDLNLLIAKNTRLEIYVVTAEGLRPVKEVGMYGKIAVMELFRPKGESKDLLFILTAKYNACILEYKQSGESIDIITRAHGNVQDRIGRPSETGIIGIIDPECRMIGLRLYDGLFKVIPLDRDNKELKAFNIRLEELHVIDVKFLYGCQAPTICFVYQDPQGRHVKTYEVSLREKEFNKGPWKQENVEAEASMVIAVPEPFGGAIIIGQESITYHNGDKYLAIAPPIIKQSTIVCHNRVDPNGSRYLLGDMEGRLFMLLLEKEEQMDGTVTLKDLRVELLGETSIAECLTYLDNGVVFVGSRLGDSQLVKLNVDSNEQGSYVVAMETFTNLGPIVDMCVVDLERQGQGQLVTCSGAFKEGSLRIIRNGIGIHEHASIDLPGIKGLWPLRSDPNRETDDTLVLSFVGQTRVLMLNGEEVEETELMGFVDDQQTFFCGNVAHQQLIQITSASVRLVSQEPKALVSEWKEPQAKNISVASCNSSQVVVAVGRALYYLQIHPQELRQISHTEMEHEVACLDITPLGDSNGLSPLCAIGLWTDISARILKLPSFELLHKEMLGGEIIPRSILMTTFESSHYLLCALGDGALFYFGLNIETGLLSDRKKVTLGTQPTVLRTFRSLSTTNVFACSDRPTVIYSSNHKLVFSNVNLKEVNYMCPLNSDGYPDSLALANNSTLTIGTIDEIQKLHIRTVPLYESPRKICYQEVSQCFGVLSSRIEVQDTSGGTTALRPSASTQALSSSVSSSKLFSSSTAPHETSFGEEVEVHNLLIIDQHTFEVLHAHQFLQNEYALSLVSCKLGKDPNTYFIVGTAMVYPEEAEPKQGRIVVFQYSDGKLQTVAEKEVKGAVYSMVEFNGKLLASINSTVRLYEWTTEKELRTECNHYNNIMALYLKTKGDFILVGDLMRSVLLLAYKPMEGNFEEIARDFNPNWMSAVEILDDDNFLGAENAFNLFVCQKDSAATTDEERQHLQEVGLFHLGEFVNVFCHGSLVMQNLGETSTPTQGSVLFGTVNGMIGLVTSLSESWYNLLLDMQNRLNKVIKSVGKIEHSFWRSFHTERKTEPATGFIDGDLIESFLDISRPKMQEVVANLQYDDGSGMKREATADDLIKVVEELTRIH
Nature of the experiment: AlphaLISA assay for off-target recruitment detection, IKZF1 ZF2. Type of experiment: binding. The settings on record: 1 μM compound; normalized to Lenalidomide; read-out: Normalized ternary complex response, IKZF1 ZF2. An outline of the steps: as §1
(In general: Alpha assays give light when donor and acceptor beads are brought close together.)

In experiment [3] the target is T3, [IKZF2 ZF2]-[compound]-[CRBN/DDB1] ternary complex (Homo sapiens, UniProt Q96SW2+Q9UKS7).
T3 construct: IKZF2 ZF2
T3 sequence (Q9UKS7 140-162 limits assumed): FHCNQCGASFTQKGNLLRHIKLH
T3 sequence (Q96SW2 whole entry): as the sequence (Q96SW2 whole entry) above
T3 sequence (Q16531 whole entry partner): as the sequence (Q16531 whole entry partner) above
Nature of the experiment: AlphaLISA assay for off-target recruitment detection, IKZF2 ZF2. The settings on record: 1 μM compound; normalized to Helios modulator; read-out: Normalized ternary complex response, IKZF2 ZF2. The experiment is classed as binding. In short, it runs like this: as §1

Experiment [4] has as its target [CK1α]-[compound]-[CRBN/DDB1] ternary complex (Homo sapiens, UniProt P48729+Q96SW2). The experiment can be described thus: AlphaLISA assay for off-target recruitment detection, CK1α. Type of experiment: binding. The conditions noted are these: 1 μM compound; normalized to FPFT-2216; read-out: Normalized ternary complex response, CK1α. An outline of the steps:
as §1

The next experiment relates to GSPT1-HiBiT HEK293 cells. The experiment can be described thus: Cell Viability-CTG assay accompanying the Nano-Glo HiBiT assay. The experiment is classed as cell-based. The settings on record: 6 hours treatment, viability of GSPT1-HiBiT HEK293 cells. In short, it runs like this: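 HEK293 GSPT1-HiBiT cells treated as for the HiBiT assay, incubated 6 h at 37 °C/5% CO2, then equilibrated to RT. Viability read by CellTiter-Glo luminescence after 4 min shaking and 8 min dark incubation; Mean Minimum values derived by non-linear regression of RLU data.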
For orientation: HiBiT is a short tag that completes a luciferase, so light tracks the accessible tagged protein.

Sequence of [CK1α]-[compound]-[CRBN/DDB1] ternary complex (P48729 whole entry): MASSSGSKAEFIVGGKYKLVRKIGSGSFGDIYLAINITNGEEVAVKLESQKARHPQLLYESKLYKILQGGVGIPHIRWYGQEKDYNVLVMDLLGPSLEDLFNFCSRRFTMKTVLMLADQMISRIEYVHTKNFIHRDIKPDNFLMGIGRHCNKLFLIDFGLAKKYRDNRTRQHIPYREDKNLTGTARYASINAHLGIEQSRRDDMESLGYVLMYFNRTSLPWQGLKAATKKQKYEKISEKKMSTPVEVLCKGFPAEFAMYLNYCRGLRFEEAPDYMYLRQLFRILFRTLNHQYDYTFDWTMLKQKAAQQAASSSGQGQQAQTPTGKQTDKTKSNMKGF
Sequence of [CK1α]-[compound]-[CRBN/DDB1] ternary complex (Q96SW2 whole entry): as the sequence (Q96SW2 whole entry) above
Sequence of [CK1α]-[compound]-[CRBN/DDB1] ternary complex (Q16531 whole entry partner): as the sequence (Q16531 whole entry partner) above
T1 sequence (Q9UJQ4 410-432 limits assumed): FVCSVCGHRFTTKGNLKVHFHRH
T1 sequence (Q96SW2 whole entry): as the sequence (Q96SW2 whole entry) above
T1 sequence (Q16531 whole entry partner): as the sequence (Q16531 whole entry partner) above

As for `Cc1ccc(NC(=O)OCc2ccc3cc(C4(F)CCC(=O)NC4=O)c(C)nc3c2)cc1Cl` (stereo not shown) [Compound 74, (3-(3-fluoro-2,6-dioxopiperidin-3-yl)-2-methylquinolin-7-yl)methyl (3-chloro-4-methylphenyl)carbamate], the activation at 1 µM in experiment [1], in experiment [2], in experiment [3] and in experiment [4] was < 10% throughout. Further, the “CTG assay Mean minimum” value in the experiment on GSPT1-HiBiT HEK293 cells is “++++ (++++≥75% of viability of the HiBiT-GSPT1 HEK293 cells)”.

For `COc1cc(C)c(Cl)cc1NC(=O)OCc1ccc2cc(C3CCC(=O)NC3=O)c(C)nc2c1` (stereo not shown) [Compound 21, (3-(2,6-dioxopiperidin-3-yl)-2-methylquinolin-7-yl)methyl (5-chloro-2-methoxy-4-methylphenyl)carbamate], the activation at 1 µM in experiment [1], in experiment [2], in experiment [3] and in experiment [4] was < 10% throughout. In the experiment on GSPT1-HiBiT HEK293 cells, the “CTG assay Mean minimum” value is “++++ (++++≥75% of viability of the HiBiT-GSPT1 HEK293 cells)”.
